One assay has as its target CK1δ (Homo sapiens (Human), UniProt P48730). As to the kind of experiment: CK1δ kinase assay (Caliper LabChip, fluoresceinated peptide substrate). It counts as biochemical. Conditions: 200 pM CK1δ, 50 μM ATP, 1.5 μM peptide substrate, 22 hours room temperature. How it is done: (§1) CK1ε and CK1δ Kinase Assays
(§2) The kinase assay was performed in V-bottom 384-well plates. […] The reaction was incubated at room temperature for 22 hours and terminated by adding 45 μl of 35 mM EDTA to each sample. […] Compounds were dissolved at 10 mM in dimethylsulfoxide (DMSO) and evaluated at eleven concentrations. IC50 values were derived by non-linear regression analysis.

A further assay concerns the target CK1ε (Homo sapiens (Human), UniProt P49674). Description: CK1ε kinase assay (Caliper LabChip, fluoresceinated peptide substrate). It counts as biochemical. The settings on record: 200 pM CK1ε, 50 μM ATP, 1.5 μM peptide substrate, 22 hours room temperature. How it is done:
as §1, §2

The structures appear in SMILES notation. Counter-ions that a name gives are not always drawn.

Sequence of CK1δ (P48730 whole entry): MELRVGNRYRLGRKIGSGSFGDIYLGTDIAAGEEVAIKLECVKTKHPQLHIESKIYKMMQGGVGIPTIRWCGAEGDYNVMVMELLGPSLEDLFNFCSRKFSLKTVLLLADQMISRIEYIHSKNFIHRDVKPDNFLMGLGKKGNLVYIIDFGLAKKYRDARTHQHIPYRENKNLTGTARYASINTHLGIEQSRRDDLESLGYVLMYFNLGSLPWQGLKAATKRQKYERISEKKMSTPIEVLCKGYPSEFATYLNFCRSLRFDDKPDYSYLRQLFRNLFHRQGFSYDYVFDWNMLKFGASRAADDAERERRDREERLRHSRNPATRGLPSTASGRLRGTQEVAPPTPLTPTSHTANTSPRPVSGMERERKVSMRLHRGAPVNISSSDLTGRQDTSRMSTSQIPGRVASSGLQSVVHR
Sequence of CK1ε (P49674 whole entry): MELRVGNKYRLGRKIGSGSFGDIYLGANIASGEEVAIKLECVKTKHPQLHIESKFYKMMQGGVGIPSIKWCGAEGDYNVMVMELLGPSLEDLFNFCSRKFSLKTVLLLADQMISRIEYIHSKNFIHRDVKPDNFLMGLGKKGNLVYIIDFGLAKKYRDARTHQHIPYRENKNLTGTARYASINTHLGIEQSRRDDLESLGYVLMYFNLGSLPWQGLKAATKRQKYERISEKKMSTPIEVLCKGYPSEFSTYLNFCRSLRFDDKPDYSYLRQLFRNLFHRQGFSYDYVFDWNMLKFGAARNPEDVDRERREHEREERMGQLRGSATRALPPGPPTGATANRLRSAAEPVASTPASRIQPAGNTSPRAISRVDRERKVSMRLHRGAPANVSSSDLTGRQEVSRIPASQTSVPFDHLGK

As to `Cn1cc(-c2ccc3nc(NC(=O)c4cnn(C)c4Cl)cn3n2)c(-c2ccc(F)cc2)n1` [Compound 60, 5-chloro-N-(6-(3-(4-fluorophenyl)-1-methyl-1H-pyrazol-4-yl)imidazo[1,2-b]pyridazin-2-yl)-1-methyl-1H-pyrazole-4-carboxamide], the IC50 (usually the concentration that gives 50% inhibition) at CK1δ stood at 5.5 nM; at CK1ε it was 13.1 nM.

With `Cn1nc(-c2ccc(F)cc2)c(-c2ccc3nc(NC(=O)c4cccc(-c5cccnc5)c4)cn3n2)c1-c1ccncc1` [Compound 205, N-(6-(3-(4-Fluorophenyl)-1-methyl-5-(pyridin-4-yl)-1H-pyrazol-4-yl)imidazo[1,2-b]pyridazin-2-yl)-3-(pyridin-3-yl)benzamide], the IC50 at CK1δ came to 0.9 nM; against CK1ε it was 9.8 nM.

With `Cc1nc(-c2cccnc2)sc1C(=O)Nc1cn2nc(-c3c(-c4ccc(F)cc4)nn(C)c3C3CCN(C)CC3)ccc2n1` [Compound 175, N-(6-(3-(4-Fluorophenyl)-1-methyl-5-(1-methylpiperidin-4-yl)-1H-pyrazol-4-yl)imidazo[1,2-b]pyridazin-2-yl)-4-methyl-2-(pyridin-3-yl)thiazole-5-carboxamide], the IC50 was 3 nM against CK1δ and 4 nM against CK1ε.

Consider `Cn1cc(-c2ccc3nc(NC(=O)c4ccccc4)c(F)n3n2)c(-c2ccc(F)cc2)n1` [Compound 192, N-(3-Fluoro-6-(3-(4-fluorophenyl)-1-methyl-1H-pyrazol-4-yl)imidazo[1,2-b]pyridazin-2-yl)benzamide], for which the results for the half-maximal inhibitory concentration (IC50) at CK1δ and on CK1ε were 5.6 nM and 23.3 nM, respectively.

Take `Cn1cc(-c2ccc3nc(NC(=O)c4ccccc4)c(Cl)n3n2)c(-c2ccc(F)cc2)n1` [Compound 191, N-(3-Chloro-6-(3-(4-fluorophenyl)-1-methyl-1H-pyrazol-4-yl)imidazo[1,2-b]pyridazin-2-yl)benzamide]: the IC50 against CK1δ stood at 24.5 nM; on CK1ε, 153 nM.

Take `Cn1nc(-c2ccc(F)cc2)c(-c2ccc3nc(NC(=O)c4ccnc(N5CCOCC5)c4)cn3n2)c1-c1ccncc1` [Compound 203, N-(6-(3-(4-Fluorophenyl)-1-methyl-5-(pyridin-4-yl)-1H-pyrazol-4-yl)imidazo[1,2-b]pyridazin-2-yl)-2-morpholinoisonicotinamide]: the IC50 against CK1δ was 0.9 nM; on CK1ε it was 7.9 nM.

For the compound `Cn1nc(-c2ccc(F)cc2)c(-c2ccc3nc(NC(=O)c4ccncc4)cn3n2)c1N1CCNCC1` [Compound 129, N-(6-(3-(4-Fluorophenyl)-1-methyl-5-(piperazin-1-yl)-1H-pyrazol-4-yl)imidazo[1,2-b]pyridazin-2-yl)isonicotinamide], the IC50 turned out to be 0.9 nM at CK1δ and 3.3 nM at CK1ε.

In the case of `Cn1cc(-c2ccc3nc(NC(=O)c4csc(-c5ccncc5)n4)cn3n2)c(-c2ccc(F)cc2)n1` [Compound 8, N-(6-(3-(4-fluorophenyl)-1-methyl-1H-pyrazol-4-yl)imidazo[1,2-b]pyridazin-2-yl)-2-(pyridin-4-yl)thiazole-4-carboxamide], the 50% inhibitory concentration (IC50) turned out to be 5.4 nM on CK1δ and 31.4 nM against CK1ε.

In the case of `Cn1cc(-c2ccc3nc(NC(=O)c4cc(O)ncn4)cn3n2)c(-c2ccc(F)cc2)n1` [Compound 100, N-(6-(3-(4-fluorophenyl)-1-methyl-1H-pyrazol-4-yl)imidazo[1,2-b]pyridazin-2-yl)-6-hydroxypyrimidine-4-carboxamide], the values for the IC50 against CK1δ and against CK1ε were 9.4 nM and 28.8 nM, respectively.

With `Cn1nc(-c2ccc(F)cc2)c(-c2ccc3nc(NC(=O)c4ccncc4)cn3n2)c1C1CCN(Cc2ccon2)CC1` [Compound 169, N-(6-(3-(4-fluorophenyl)-5-(1-(isoxazol-3-ylmethyl)piperidin-4-yl)-1-methyl-1H-pyrazol-4-yl)imidazo[1,2-b]pyridazin-2-yl)isonicotinamide], the results for the half-maximal inhibitory concentration (IC50) on CK1δ and against CK1ε were 1.4 nM and 0.8 nM, respectively.

As for `Cn1nc(-c2ccc(F)cc2)c(-c2ccc3nc(NC(=O)c4ccncc4)cn3n2)c1C1CCOCC1` [Compound 197, N-(6-(3-(4-Fluorophenyl)-1-methyl-5-(tetrahydro-2H-pyran-4-yl)-1H-pyrazol-4-yl)imidazo[1,2-b]pyridazin-2-yl)isonicotinamide], the half-inhibitory concentration (IC50) was 0.3 nM on CK1δ and 1.8 nM on CK1ε.

For `Cc1nocc1C(=O)Nc1cn2nc(-c3cn(C)nc3-c3ccc(F)cc3)ccc2n1` [Compound 12, N-(6-(3-(4-fluorophenyl)-1-methyl-1H-pyrazol-4-yl)imidazo[1,2-b]pyridazin-2-yl)-3-methylisoxazole-4-carboxamide], the IC50 at CK1δ was 7.3 nM; at CK1ε, 28.8 nM.

On to `Cn1cc(-c2ccc3nc(NC(=O)c4ccccc4F)cn3n2)c(-c2ccc(F)cc2)n1` [Compound 20, 2-fluoro-N-(6-(3-(4-fluorophenyl)-1-methyl-1H-pyrazol-4-yl)imidazo[1,2-b]pyridazin-2-yl)benzamide], for which the concentration for half-maximal inhibition (IC50) stood at 4.3 nM against CK1δ and 9.2 nM at CK1ε.

Regarding `Cn1nc(-c2ccc(F)cc2)c(-c2ccc3nc(NC(=O)c4ccncc4)cn3n2)c1C1CCN(Cc2nccs2)CC1` [Compound 173, N-(6-(3-(4-fluorophenyl)-1-methyl-5-(1-(thiazol-2-ylmethyl)piperidin-4-yl)-1H-pyrazol-4-yl)imidazo[1,2-b]pyridazin-2-yl) isonicotinamide], the IC50 is 1.5 nM against CK1δ and 6.4 nM on CK1ε.

As to `Cn1nc(-c2ccc(F)cc2)c(-c2ccc3nc(NC(=O)c4cccc(-c5cccnc5)c4)cn3n2)c1C1CCOCC1` [Compound 199, N-(6-(3-(4-Fluorophenyl)-1-methyl-5-(tetrahydro-2H-pyran-4-yl)-1H-pyrazol-4-yl)imidazo[1,2-b]pyridazin-2-yl)-3-(pyridin-3-yl)benzamide], the IC50 against CK1δ amounted to 0.2 nM; on CK1ε it was 1.9 nM.

In the case of `Cn1cc(-c2ccc3nc(NC(=O)c4ccccc4)cn3n2)c(-c2ccc(F)cc2)n1` [Compound 81, N-(6-(3-(4-fluorophenyl)-1-methyl-1H-pyrazol-4-yl)imidazo[1,2-b]pyridazin-2-yl)benzamide], the 50% inhibitory concentration (IC50) against CK1δ was determined as 5.4 nM; against CK1ε it was 5.6 nM.

As to `COc1ccc(C(=O)Nc2cn3nc(-c4cn(C)nc4-c4ccc(F)cc4)ccc3n2)c(OC)n1` [Compound 75, N-(6-(3-(4-fluorophenyl)-1-methyl-1H-pyrazol-4-yl)imidazo[1,2-b]pyridazin-2-yl)-2,6-dimethoxynicotinamide], the IC50 against CK1δ was 41 nM; at CK1ε, 363 nM.

As for `CN1CCC(c2c(-c3ccc4nc(NC(=O)c5ccncc5)cn4n3)c(-c3ccc(F)cc3)nn2C)CC1` [Compound 165, N-(6-(3-(4-Fluorophenyl)-1-methyl-5-(1-methylpiperidin-4-yl)-1H-pyrazol-4-yl)imidazo[1,2-b]pyridazin-2-yl)isonicotinamide], the concentration for half-maximal inhibition (IC50) at CK1δ is 2.7 nM; against CK1ε it was 5 nM.

Take `Cn1nc(-c2ccc(F)cc2)c(-c2ccc3nc(NC(=O)c4ccncc4)cn3n2)c1C1CCN(C2CCOCC2)CC1` [Compound 167, N-(6-(3-(4-fluorophenyl)-1-methyl-5-(1-(tetrahydro-2H-pyran-4-yl)piperidin-4-yl)-1H-pyrazol-4-yl)imidazo[1,2-b]pyridazin-2-yl)isonicotinamide]: the results for the 50% inhibitory concentration (IC50) against CK1δ and against CK1ε were 2.4 nM and 7.7 nM, respectively.

Turning to `Cc1nc(-c2cccnc2)sc1C(=O)Nc1cn2nc(-c3cn(C4CC4)nc3-c3ccc(F)cc3)ccc2n1` [Compound 109, N-(6-(1-cyclopropyl-3-(4-fluorophenyl)-1H-pyrazol-4-yl)imidazo[1,2-b]pyridazin-2-yl)-4-methyl-2-(pyridin-3-yl)thiazole-5-carboxamide], the results for the IC50 at CK1δ and at CK1ε were 2.5 nM and 12.3 nM, respectively.

On to `Cn1cc(-c2ccc3nc(NC(=O)C4CCOCC4)cn3n2)c(-c2ccc(F)cc2)n1` [Compound 40, N-(6-(3-(4-fluorophenyl)-1-methyl-1H-pyrazol-4-yl)imidazo[1,2-b]pyridazin-2-yl)tetrahydro-2H-pyran-4-carboxamide], for which the IC50 against CK1δ turned out to be 5.4 nM; against CK1ε it was 18 nM.

Take `Cn1cc(-c2ccc3nc(NC(=O)c4ccncc4)c(-c4ccncc4)n3n2)c(-c2ccc(F)cc2)n1` [Compound 194, N-(6-(3-(4-Fluorophenyl)-1-methyl-1H-pyrazol-4-yl)-3-(pyridin-4-yl)imidazo[1,2-b]pyridazin-2-yl)isonicotinamide, 2 TFA]: the 50% inhibitory concentration (IC50) was 97 nM on CK1δ and 554 nM at CK1ε.

On to `Cn1cc(-c2ccc3nc(NC(=O)c4ccc(C#N)nc4)cn3n2)c(-c2ccc(F)cc2)n1` [Compound 53, 6-cyano-N-(6-(3-(4-fluorophenyl)-1-methyl-1H-pyrazol-4-yl)imidazo[1,2-b]pyridazin-2-yl)nicotinamide], for which the half-maximal inhibitory concentration (IC50) against CK1δ turned out to be 5.8 nM; on CK1ε, 21.4 nM.

Turning to `Cn1cc(-c2ccc3nc(NC(=O)c4ccnnc4)cn3n2)c(-c2ccc(F)cc2)n1` [Compound 25, N-(6-(3-(4-fluorophenyl)-1-methyl-1H-pyrazol-4-yl)imidazo[1,2-b]pyridazin-2-yl)pyridazine-4-carboxamide], the IC50 was found to be 7.4 nM against CK1δ and 14.5 nM against CK1ε.

On to `Cn1cc(-c2ccc3nc(NC(=O)C45CCCC(CCC4)C5)cn3n2)c(-c2ccc(F)cc2)n1` [Compound 92, N-(6-(3-(4-fluorophenyl)-1-methyl-1H-pyrazol-4-yl)imidazo[1,2-b]pyridazin-2-yl)bicyclo[3.3.1]nonane-1-carboxamide], for which the half-inhibitory concentration (IC50) against CK1δ turned out to be 5.5 nM; on CK1ε, 10.5 nM.

On to `CCN(CC)Cc1ccc(C(=O)Nc2cn3nc(-c4cn(C)nc4-c4ccc(F)cc4)ccc3n2)cc1` [Compound 31, 4-((diethylamino)methyl)-N-(6-(3-(4-fluorophenyl)-1-methyl-1H-pyrazol-4-yl)imidazo[1,2-b]pyridazin-2-yl)benzamide], for which the figures for the half-inhibitory concentration (IC50) against CK1δ and against CK1ε were 3.9 nM and 6.3 nM, respectively.
